Molecular target: T1, human LXRβ (Homo sapiens, UniProt P55055)
T1 construct: expressed in transfected cells; host or cells: HEK293 cells (ATCC CRL-1573), transient transfection with pFA-hLXRβ/GAL4 and pUAS
T1 sequence (P55055 222-460 limits assumed): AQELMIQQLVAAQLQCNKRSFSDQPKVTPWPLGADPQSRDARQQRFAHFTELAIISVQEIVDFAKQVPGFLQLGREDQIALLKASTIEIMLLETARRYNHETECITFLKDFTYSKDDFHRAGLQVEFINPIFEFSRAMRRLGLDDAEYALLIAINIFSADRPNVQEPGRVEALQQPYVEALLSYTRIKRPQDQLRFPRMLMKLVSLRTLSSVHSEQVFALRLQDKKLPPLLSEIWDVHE
Assay: Assay for Transcriptional Activity of LXRβ (GAL4-hLXRβ LBD luciferase reporter, transient transfection)
Type: cell-based
Settings: HEK293 cells transfected with pFA-hLXRβ/GAL4 and pUAS, 24 hours; for Emax: fold value in comparison with the control (DMSO-treated group); for EC50: increase of transcriptional activity of LXRβ, average of three independent tests
Outline: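 HEK293 cells transiently co-transfected with GAL4-hLXRβ LBD and 5×GAL4-UAS luciferase reporter, treated 24 h at 37 °C with compounds over 9 points (0.01–50 μM, half-log). Luminescence read after lysis; EC50 from four-parameter fit, mean of three independent tests, with a known LXR agonist as positive control.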

| Emax | EC50 | SMILES |
| --- | --- | --- |
| 22 fold | 1170 nM | CN(C)C(=O)N1CC=C(c2ccc(C3CC(C(O)(C(F)(F)F)C(F)(F)F)=NN3c3ccc(F)cc3F)cc2)CC1 (stereo not shown) [Example 403, 1-(2,4-difluoro-phenyl)-5-[4-(1-dimethylcarbamoyl-1,2,3,6-tetrahydropyridin-4-yl)-phenyl]-3-[di-(trifluoromethyl)-hydroxy-methyl]-4,5-dihydro-1H-pyrazole] |
| 36 fold | 821 nM | COc1ccc(-c2ccc(C3CC(C(O)(C(F)(F)F)C(F)(F)F)=NN3c3ccc(F)cc3F)cc2)cn1 (stereo not shown) [Example 370, 1-(2,4-difluoro-phenyl)-5-(4-(6-methoxy-pyridin-3-yl)-phenyl)-3-[di-(trifluoromethyl)-hydroxy-methyl]-4,5-dihydro-1H-pyrazole] |
| 29 fold | 2960 nM | Fc1cncc(-c2cccc(C3CC(C(F)(F)C(F)(F)F)=NN3c3ccc(F)cc3F)c2)c1 (stereo not shown) [Example 74, 1-(2,4-difluoro-phenyl)-5-(3-(5-fluoro-pyridin-3-yl)-phenyl)-3-pentafluoroethyl-4,5-dihydro-1H-pyrazole] |
| 115 fold | 784 nM | Cc1ccccc1-c1ccc(C2CC(C(O)(C(F)(F)F)C(F)(F)F)=NN2c2ccccc2Cl)cc1 (stereo not shown) [Example 249, 1-(2-chloro-phenyl)-5-(2′-methyl-biphenyl-4-yl)-3-[di-(trifluoromethyl)-hydroxy-methyl]-4,5-dihydro-1H-pyrazole] |
| 42 fold | 71 nM | C[S+]([O-])c1cccc(-c2ccc(C3CC(C(O)(C(F)(F)F)C(F)(F)F)=NN3c3ccccc3Cl)c(F)c2)c1 (stereo not shown) [Example 345, 1-(2-chloro-phenyl)-5-(3-fluoro-3′-methanesulfinyl-biphenyl-4-yl)-3-[di-(trifluoromethyl)-hydroxy-methyl]-4,5-dihydro-1H-pyrazole] |
| 80 fold |  | CS(=O)(=O)c1ccc(-c2ccc(C3CC(C(O)(C(F)(F)F)C(F)(F)F)=NN3c3ccccc3Cl)s2)cn1 (stereo not shown) [Example 420, 1-(2-chloro-phenyl)-5-{5-[6-(methylsulfonyl)-pyridin-3-yl]-thiophen-2-yl}-3-[di-(trifluoromethyl)-hydroxy-methyl]-4,5-dihydro-1H-pyrazole] |
| 57 fold | 2430 nM | COc1cccc(OC)c1-c1ccc(C2CC(C(O)(C(F)(F)F)C(F)(F)F)=NN2c2ccccc2Cl)cc1 (stereo not shown) [Example 245, 1-(2-chloro-phenyl)-5-(2′,6′-dimethoxy-biphenyl-4-yl)-3-[di-(trifluoromethyl)-hydroxy-methyl]-4,5-dihydro-1H-pyrazole] |
| 83 fold | 1100 nM | CS(=O)(=O)c1ccc(-c2cccc(C3CC(C(F)(F)C(F)(F)F)=NN3c3ccc(F)cc3F)c2)cc1C(F)(F)F (stereo not shown) [Example 69, 1-(2,4-difluoro-phenyl)-5-(4′-methanesulfonyl-3′-trifluoromethyl-biphenyl-3-yl)-3-pentafluoroethyl-4,5-dihydro-1H-pyrazole] |
| 71 fold | 1110 nM | CCOc1cccc(-c2ccc(C3CC(C(O)(C(F)(F)F)C(F)(F)F)=NN3c3ccccc3Cl)c(F)c2)c1 (stereo not shown) [Example 339, 1-(2-chloro-phenyl)-5-(3′-ethoxy-3-fluoro-biphenyl-4-yl)-3-[di-(trifluoromethyl)-hydroxy-methyl]-4,5-dihydro-1H-pyrazole] |
| 20 fold | 5110 nM | CN(C)S(=O)(=O)c1cccc(-c2cccc(N3N=C(C(F)(F)C(F)(F)F)CC3c3ccc(F)cc3F)c2)n1 (stereo not shown) [Example 209, 5-(2,4-difluoro-phenyl)-1-[3-(6-dimethylsulfamoyl-pyridin-2-yl)-phenyl]-3-pentafluoroethyl-4,5-dihydro-1H-pyrazole] |
| 153 fold | 501 nM | CSc1cccc(-c2ccc(F)c(C3CC(C(F)(F)C(F)(F)F)=NN3c3ccc(F)cc3F)c2)c1 (stereo not shown) [Example 138, 1-(2,4-difluoro-phenyl)-5-(4-fluoro-3′-(methylsulfanyl)biphenyl-3-yl)-3-pentafluoroethyl-4,5-dihydro-1H-pyrazole] |
| 89 fold | 1660 nM | CS(=O)(=O)c1ccc(-c2cccc(C3CC(C(F)(F)C(F)(F)F)=NN3c3ccc(Cl)cc3Cl)c2)cc1 (stereo not shown) [Example 41, 1-(2,4-dichloro-phenyl)-5-(4′-methanesulfonyl-biphenyl-3-yl)-3-pentafluoroethyl-4,5-dihydro-1H-pyrazole] |
| 102 fold | 295 nM | CNCCCS(=O)(=O)c1cccc(-c2ccc(C3CC(C(O)(C(F)(F)F)C(F)(F)F)=NN3c3ccccc3Cl)cc2)c1 (stereo not shown) [Example 334, 1-(2-chloro-phenyl)-5-{3′-[3-(methyl-amino)-propane-1-sulfonyl]-biphenyl-4-yl}-3-[di-(trifluoromethyl)-hydroxy-methyl]-4,5-dihydro-1H-pyrazole] |
| 73 fold | 4900 nM | Fc1ccc(N2N=C(C(F)(F)C(F)(F)F)CC2c2cccc(-c3ccc(F)nc3)c2)c(F)c1 (stereo not shown) [Example 55, 1-(2,4-difluoro-phenyl)-5-[3-(6-fluoro-pyridin-3-yl)-phenyl]-3-pentafluoroethyl-4,5-dihydro-1H-pyrazole] |
| 12 fold | 1810 nM | CC(C)(C)OC(=O)N1CC=C(c2ccc(C3CC(C(O)(C(F)(F)F)C(F)(F)F)=NN3c3ccc(F)cc3F)cc2)CC1 (stereo not shown) [Example 398, 1-(2,4-difluoro-phenyl)-5-[4-(1-BOC-1,2,3,6-tetrahydropyridin-4-yl)-phenyl]-3-[di-(trifluoromethyl)-hydroxy-methyl]-4,5-dihydro-1H-pyrazole] |
| 95 fold | 3630 nM | CS(=O)(=O)N1CCN(c2cc(C3CC(C(F)(F)C(F)(F)F)=NN3c3ccc(F)cc3F)ccn2)CC1 (stereo not shown) [Example 194, 1-(2,4-difluoro-phenyl)-5-[2-(4-methanesulfonyl-piperazin-1-yl)-pyridin-4-yl]-3-pentafluoroethyl-4,5-dihydro-1H-pyrazole] |
| 80 fold | 1070 nM | CCOc1cccc(-c2ccc(C3CC(C(O)(C(F)(F)F)C(F)(F)F)=NN3c3ccc(F)cc3F)cc2)c1 (stereo not shown) [Example 337, 5-(3′-ethoxy-biphenyl-4-yl)-1-(2,4-difluoro-phenyl)-3-[di-(trifluoromethyl)-hydroxy-methyl]-4,5-dihydro-1H-pyrazole] |
| 67 fold | 3360 nM | CS(=O)(=O)N1CCN(c2cccc(C3CC(C(F)(F)C(F)(F)F)=NN3c3ccc(F)cc3F)c2)CC1 (stereo not shown) [Example 96, 1-(2,4-difluoro-phenyl)-5-[3-(4-methanesulfonyl-piperazin-1-yl)-phenyl]-3-pentafluoroethyl-4,5-dihydro-1H-pyrazole] |
| 72 fold | 580 nM | CC(=O)c1ccc(-c2ccc(C3CC(C(O)(C(F)(F)F)C(F)(F)F)=NN3c3ccccc3Cl)cc2F)cc1 (stereo not shown) [Example 362, 5-(4′-acetyl-2-fluoro-biphenyl-4-yl)-1-(2-chloro-phenyl)-3-[di-(trifluoromethyl)-hydroxy-methyl]-4,5-dihydro-1H-pyrazole] |
| 37 fold | 3750 nM | CC(C)S(=O)(=O)N1CCCN(c2ccc(C3CC(C(O)(C(F)(F)F)C(F)(F)F)=NN3c3ccccc3Cl)cc2)CC1 (stereo not shown) [Example 324, 1-(2-chloro-phenyl)-5-[4-(4-isopropylsulfonyl-homopiperazin-1-yl)-phenyl]-3-[di-(trifluoromethyl)-hydroxy-methyl]-4,5-dihydro-1H-pyrazole] |
| 57 fold | 7180 nM | CSc1ccc(-c2cccc(C3CC(C(F)(F)C(F)(F)F)=NN3c3ccc(F)cc3F)c2)cn1 (stereo not shown) [Example 77, 1-(2,4-difluoro-phenyl)-5-[3-(2-methylsulfanyl-pyridin-5-yl)-phenyl]-3-pentafluoroethyl-4,5-dihydro-1H-pyrazole] |
| 38 fold | 450 nM | N#Cc1ncccc1-c1ccc(C2CC(C(O)(C(F)(F)F)C(F)(F)F)=NN2c2ccc(F)cc2F)cc1 (stereo not shown) [Example 380, 5-[4-(2-cyano-pyridin-3-yl)-phenyl)-1-(2,4-difluoro-phenyl)-3-[di-(trifluoromethyl)-hydroxy-methyl]-4,5-dihydro-1H-pyrazole] |
| 29 fold | 161 nM | CS(=O)(=O)c1ccc(-c2ccc(C3CC(C(O)(C(F)(F)F)C(F)(F)F)=NN3c3ccccc3Cl)cc2)cc1C#N (stereo not shown) [Example 290, 1-(2-chloro-phenyl)-5-[3′-cyano-4′-(methylsulfonyl)-biphenyl-4-yl]-3-[di-(trifluoromethyl)-hydroxy-methyl]-4,5-dihydro-1H-pyrazole] |
| 11 fold | 20100 nM | CC(C)(C)OC(=O)N1CC=C(c2cccc(C3CC(C(F)(F)C(F)(F)F)=NN3c3ccc(F)cc3F)c2)CC1 (stereo not shown) [Example 60, 5-[3-(1-BOC-1,2,3,6-tetrahydropyridin-4-yl)-phenyl]-1-(2,4-difluoro-phenyl)-3-pentafluoroethyl-4,5-dihydro-1H-pyrazole] |
| 104 fold | 521 nM | O=S(=O)(C1CC1)N1CC=C(c2ccc(C3CC(C(O)(C(F)(F)F)C(F)(F)F)=NN3c3ccccc3Cl)cc2)CC1 (stereo not shown) [Example 304, 1-(2-chloro-phenyl)-5-[4-(1-cyclopropanesulfonyl-1,2,3,6-tetrahydropyridin-4-yl)-phenyl]-3-[di-(trifluoromethyl)-hydroxy-methyl]-4,5-dihydro-1H-pyrazole] |

Source: patent US9376420B2 (YUHAN CORPORATION, priority 2012, dated 2016)
